According to patent publication US6713077B1, “Control of shoot/foliar feeding pests with pesticide seed treatments” (Monsanto Technology, LLC, priority 1999, dated 2004):
Like-named read-outs stand apart in the source and are kept apart here.

Tests used:
[1] = cited from earlier work
[2] = cited from earlier work; remark: listed apart in the source
black cutworm larvae [3] = assay: Example 2: stand reduction of corn by black cutworm, tub test; type: in vivo
Protocol: (§1) A lambda-cyhalothrin seed treatment formulation was prepared from the WARRIOR T insecticide and corn seed was prepared and treated as described in Example 1, except that the treatment levels were 88, 185 and 381 gm active ingredient/100 kg seed. Treated and untreated seeds were planted and cultivated as described as described in Example 1. Again, FORCE 3GR was applied either in-furrow or incorporated into a 5 inch band on the soil surface at the time of planting. The tubs were overhead irrigated until the plants were infested with black cutworm larvae.
(§2) The corn plants were infested at 12 DAP, as described in Example 1. Plants were rated at 10 days after infestation (DAI) for the number of cut plants. The percent stand reduction due to plant cutting was calculated by dividing the number of cut plants into the number of plants present at infestation.

black cutworm larvae [4] = assay: Example 4: stand reduction of corn by black cutworm in three soil types; type: in vivo; conditions: seed treatment 250 gm AI/100 kg of seed
Protocol: as §1, with “from” for “from the”, “level was 250” for “levels were 88, 185 and 381”, “1.” for “1. Again,”, “and” for “either in-furrow or”, “The untreated seed—with and without tefluthrin banding—and the treated seed were planted in three different soil types. […] The” for “The”
as §2

For `C#CCN1CC(=O)N(COC(=O)[C@@H]2C(C=C(C)C)C2(C)C)C1=O` (mixture of isomers) [Imiprothrin], the Vapor pressure ([1]; 25° C.) is listed as 1.8 E-3 mPa.

For `CC(C)[C@@H](Nc1ccc(C(F)(F)F)cc1Cl)C(=O)OC(C#N)c1cccc(Oc2ccccc2)c1` (mixture of isomers) [Tau-fluvalinate, (RS)-alpha-cyano-3-phenoxybenzyl(R)-2-[2-chloro-4-(trifluoromethyl)anilino]-3-methylbutanoate], the Water solubility ([2]; 20° C.) is given as 1.03 ppb (20° C.) and the Vapor pressure ([1]; temperature not given) is given as 9 E-8 mPa.

For `CC1(C)C(/C=C(\Cl)C(F)(F)F)C1C(=O)OC(C#N)c1cccc(Oc2ccccc2)c1` (racemic) [Cyhalothrin, [1α, 3α(Z)]-(±)-cyano-(3-phenoxyphenyl)methyl 3-(2-chloro-3,3,3-trifluoro-1-propenyl)-2,2-cimethylcyclopropanecarboxylate], the Water solubility ([2]; 20° C.) is listed as 0.004 ppb (20° C.) and the Vapor pressure ([1]; temperature not given) is listed as 0.001 mPa.

In the case of `CC1(C)C(C=C(Cl)Cl)C1C(=O)OC(C#N)c1cccc(Oc2ccccc2)c1` (racemic) [Cypermethrin, (±) alpha-cyano-(3-phenoxyphenyl)methyl(+)-cis,trans-3-(2,2-dichloroethenyl)-2,2-dimethyl-cyclopropane carboxylate], the Vapor pressure ([1]; temperature not given) is given as 2.3 E-4 mPa.

In the case of `CC(C)[C@H](C(=O)OC(C#N)c1cccc(Oc2ccccc2)c1)c1ccc(OC(F)F)cc1` (mixture of isomers) [Flucythrinate, (±)-cyano (3-phenoxyphenyl)methyl (±)-4-(difluoromethoxy)-alpha-(1-methylethyl) benzeneacetate], the Water solubility ([2]; 21° C.) is listed as 0.5 mg/l (21° C.) and the Vapor pressure ([1]; 25° C.) is listed as 0.0012 mPa.

In the case of `CC1(C)C(C=C(Cl)Cl)C1C(=O)OC(C#N)c1cccc(Oc2ccccc2)c1` (racemic) [Zeta-cypermethrin, S-cyano (3-phenoxyphenyl)methyl (±) cis/trans 3-(2,2-dichloroethenyl) 2,2 dimethylcyclopropane carboxylate], the Vapor pressure ([1]; temperature not given) is listed as 2.5 E-4 mPa.

For `CC1(C)[C@H](C(=O)O[C@H](C#N)c2cccc(Oc3ccccc3)c2)[C@@H]1/C=C\C(=O)OC(C(F)(F)F)C(F)(F)F` [Acrinathrin, (S)-alpha-cyano-3-phenoxybenzyl(Z)-(IR-cis)-2,2-dimethyl-3-[2-(2,2,2-trifluoro-trifluoromethyl-ethoxycarbonyl)vinyl]cyclopropane carboxylate], the Vapor pressure ([1]; temperature not given) is listed as 4.4 E-5 mPa.

In the case of `C=CCC1=C(C)C(OC(=O)C2C(C=C(C)C)C2(C)C)CC1=O` [Allethrin, (RS)-3-allyl-2-methyl-4-oxcyclopent-2-enyl-(1A,3R; 1R,3S)-2,2-dimethyl-3-(2-methylprop-1-enyl)cyclopropane carboxylate], the Water solubility ([2]; in words) is given as “practically insol” and the Vapor pressure ([1]; 21° C.) is given as 0.16 mPa.

For `CC1(C)C(C=C(Cl)Cl)C1C(=O)OC(C#N)c1cccc(Oc2ccccc2)c1` (stereo not drawn) [Alpha cypermethrin, (IR cis) S and (IS cis) R enantiomer isomer pair of alpha-cyano-3-phenoxybenzyl-3-(2,2dichlorovinyl)-2,2-dimethylcyclopropane carboxylate], the Vapor pressure ([1]; temperature not given) is listed as 2.3 E-2 mPa.

For `CC1(C)C(C=C(Cl)Cl)C1C(=O)OC(C#N)c1ccc(F)c(Oc2ccccc2)c1` (stereo not drawn) [Beta cyfluthrin], the Water solubility ([2]; 25° C.) is given as 1.2-2.1 μg/l (25° C.) and the Vapor pressure ([1]; no unit, temperature not given) is given as 1.4 to 8.5 E-5.

For `CC1(C)[C@H](C=C(Cl)Cl)[C@H]1C(=O)O[C@@H](C#N)c1cccc(Oc2ccccc2)c1` [Beta-cypermethrin], the Vapor pressure ([1]; temperature not given) is given as 1.8 E-4 mPa.

For `C=CCC1=C(C)C(OC(=O)[C@@H]2[C@@H](C=C(C)C)C2(C)C)CC1=O` (stereo partly shown) [Bioallethrin], the Water solubility ([2]; temperature not given) is given as 4.6 mg/L and the Vapor pressure ([1]; 25° C.) is given as 43.9 mPa.

In the case of `CC(C)=C[C@@H]1[C@@H](C(=O)OCc2coc(Cc3ccccc3)c2)C1(C)C` [Bioresmethrin, (1R-trans)-[5-(phenylmethyl)-3-furanyl]methyl 2,2-dimethyl-3-(2-methyl-1-propenyl)cyclopropanecarboxylate], the Water solubility ([2]; temperature not given) is listed as <0.3 mg/L, the Vapor pressure ([1]; (Tech.)) is listed as 18.6 mPa and the Vapor pressure ([1]; (d-resmethrin)) is listed as 0.45 mPa.

For `CCOc1ccc(C2(C(=O)OC(C#N)c3cccc(Oc4ccccc4)c3)CC2(Cl)Cl)cc1` (stereo not shown) [Cycloprothrin, cyano-(3-phenoxyphenyl)methyl 2,2-dichloro-1-(4-ethoxyphenyl)cyclopropane carboxylate], the Water solubility ([2]; 25° C.) is given as 0.091 mg/l (25° C.) and the Vapor pressure ([1]; 20° C.) is given as 2.13 E-3 mPa.

For `CC1(C)C(C=C(Cl)Cl)C1C(=O)OC(C#N)c1ccc(F)c(Oc2ccccc2)c1` (stereo not shown) [Cyfluthrin, cyano(4-fluoro-3-phenoxyphenyl)methyl 3-(2,2-dichloroethenyl)-2,2-dimethyl-cyclopropanedarboxylate], the Water solubility ([2]; 25° C.) is listed as 2-4.3 μg/l (25° C.).

In the case of `CC(C)=CC1C(C(=O)OC(C#N)c2cccc(Oc3ccccc3)c2)C1(C)C` (stereo not shown) [Cyphenothrin], the Water solubility ([2]; 25° C.) is given as <10 μg/l (25° C.) and the Vapor pressure ([1]; 20° C.) is given as 0.12 mPa.

For `CC1(C)[C@H](C(=O)O[C@H](C#N)c2cccc(Oc3ccccc3)c2)[C@@H]1C=C(Br)Br` [Deltamethrin, (s)-alpha-cyano-3-phenoxybenzyl (IR,3R)-3-(2,2-dibromovinyl)-2,2-dimethyl cyclopropanecarboxylate], the Vapor pressure ([1]; temperature not given) is given as 1.24 E-5 mPa.

In the case of `C#CC(OC(=O)C1C(C=C(C)C)C1(C)C)/C(C)=C/CC` (stereo not shown) [Empenthrin], the Vapor pressure ([1]; 23.6° C.) is listed as 14 mPa.

In the case of `CC(C)[C@H](C(=O)O[C@H](C#N)c1cccc(Oc2ccccc2)c1)c1ccc(Cl)cc1` [Esfenvalerate, (S)-cyano (3-phenoxyphenyl) methyl (S)-4-chloro-alpha-(1-methylethyl)benzeneacetate], the Water solubility ([2]; temperature not given) is given as 0.002 mg/L and the Vapor pressure ([1]; temperature not given) is given as 2 E-4 mPa.

In the case of `CC1(C)C(C(=O)OC(C#N)c2cccc(Oc3ccccc3)c2)C1(C)C` (stereo not drawn) [Fenpropathrin, alpha-cyano-3-phenoxybenzyl 2,2,3,3,-tetramethyl cyclopropoanecarboxylate], the Water solubility ([2]; 25° C.) is given as 14.1 μg/l (25° C.) and the Vapor pressure ([1]; temperature not given) is given as 0.73 mPa.

For `CC(C)C(C(=O)OC(C#N)c1cccc(Oc2ccccc2)c1)c1ccc(Cl)cc1` (stereo not drawn) [Fenvalerate, (s)-cyano(3-phenoxyphenyl)methyl 4-chloro alpha (1-methylethyl)benzeneacetate], the Water solubility ([2]; temperature not given) is listed as <0.01 mg/L and the Vapor pressure ([1]; 20° C.) is listed as 1.92 E-2 mPa.

For `CC1(C)[C@H](C(=O)O[C@H](C#N)c2cccc(Oc3ccccc3)c2)[C@@H]1/C=C(\Cl)C(F)(F)F` [Lambda cyhalothrin, [1 alpha (s), 3 alpha(z)]-cyano(3-phenoxyphenyl)methyl-3-(2-chloro-3,3,3-trifluoro-1-propenyl)-2,2-dimethylcyclopropane carboxylate], the “STAND REDUCTION (%, 10 days after infestation)” value (black cutworm larvae [3]; seed treatment 88 gm AI/100 kg of seed) was 19.4%, the “STAND REDUCTION (%, 10 days after infestation)” value (black cutworm larvae [3]; seed treatment 381 gm AI/100 kg of seed) was “total protection” and the “STAND REDUCTION (%, 10 days after infestation)” value (black cutworm larvae [4]; SOIL TYPE I) was 80.1%. For the same molecule, the “STAND REDUCTION (%, 10 days after infestation)” value (black cutworm larvae [4]; SOIL TYPE II) was 39.8%, the “STAND REDUCTION (%, 10 days after infestation)” value (black cutworm larvae [4]; SOIL TYPE III) was 72.4% and the Vapor pressure ([1]; temperature not given) was 2 E-4 mPa.

For `CC1(C)C(C=C(Cl)Cl)C1C(=O)OCc1cccc(Oc2ccccc2)c1` (stereo not drawn) [Permethrin, (3-phenoxyphenyl)-methyl(+)cis-trans-3-(2,2-dichoroethenyl)-2,2-dimethylcyclopropanecarboxylate], the Vapor pressure ([1]; temperature not given) is given as 0.07 mPa.

For `CC(C)=CC1C(C(=O)OCc2cccc(Oc3ccccc3)c2)C1(C)C` (stereo not drawn) [Phenothrin, 3-phenoxybenzyl-d,l-cistrans 2,2-dimethyl-3-(2-methylpropenyl)cyclopropane carboxylate], the Water solubility ([2]; 25° C.) is given as <9.7 μg/l (25° C.) and the Vapor pressure ([1]; 21.4° C.) is given as 1.9 E-2 mPa.

For `C#CCC1=C(C)C(OC(=O)C2C(C=C(C)C)C2(C)C)CC1=O` (stereo not shown) [Prallethrin], the Vapor pressure ([1]; 23.1° C.) is given as <0.013 mPa.

In the case of `CC(C)=CC1C(C(=O)OCN2C(=O)C3=C(CCCC3)C2=O)C1(C)C` (stereo not drawn) [Tetramethrin, 3,4,5,6-tetra hydro-phthalimidomethyl-(IRS)-cis-trans-chrysanthemate], the Vapor pressure ([1]; 30° C.) is listed as 0.944 mPa.

For `CC1(C)[C@H](C=C(Cl)Cl)[C@H]1C(=O)O[C@H](C#N)c1cccc(Oc2ccccc2)c1` [Theta cypermethrin], the Vapor pressure ([1]; temperature not given) is given as 1.8 E-4 mPa.

In the case of `CC1(C)[C@H](C(=O)O[C@H](C#N)c2cccc(Oc3ccccc3)c2)[C@@H]1C(Br)C(Br)(Br)Br` (stereo partly shown) [Tralomethrin], the Vapor pressure ([1]; 25° C.) is listed as 4.6 E-6 mPa.

In the case of `CC1(C)[C@H](C=C(Cl)Cl)[C@H]1C(=O)OCc1c(F)c(F)cc(F)c1F` [Transfluthrin], the Vapor pressure ([1]; temperature not given) is listed as 0.4 mPa.

In the case of `CC(C)C(C(=O)OC(C#N)c1cccc(Oc2ccc(Br)cc2)c1)c1ccc(OC(F)F)cc1` (stereo not shown) [ZXI8901], the Vapor pressure ([1]; 20° C.) is given as 1.6 E-4 mPa.
